As usually defined, the EC50 is the concentration at which the effect is half-maximal.

For assay [1], the system named is HCV genotype 1a (H77 strain) replicon in HUH-7 cells. The experiment in a line: HCV replicon luciferase reporter assay, genotype 1a. The assay is classed as cell-based. The conditions noted are these: Hepatitis C virus, Huh-7, 72 h, HCV genotype 1a replicon luciferase assay, 3 days incubation, range class, read-out: LE_1a (EC50, range). Summed up: (§1)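 Replicon inhibition for both genotypes was measured as Renilla luciferase signal (EnduRen, 7.5 μM final, 2 h) after 3-day, 37° C exposure of replicon-bearing HUH-7 cells in 4% FCS DMEM, 0.5% DMSO. The 1b construct carries S1179I; the 1a H77 construct carries P1496L and S2204I. Twenty-point, 3-fold dilutions were fitted four-parametrically for EC50, and CC50 was taken from multiplexed Cell Titer-Blue.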

For assay [2], the system named is HCV genotype 1b (Con1) replicon in HUH-7 cells. The experiment in a line: HCV replicon luciferase reporter assay, genotype 1b. The format is cell-based. The note with it: Hepatitis C virus, Huh-7, 72 h, HCV genotype 1b replicon luciferase assay, 3 days incubation, range class, read-out: LE_1b (EC50, range). In outline:
as §1
A general note: A replicon is a self-replicating genome or part of one, used to study replication in cells.

Where only a bound is given, the exact number is not on record here.

Consider `COCCOc1cnc(O[C@@H]2C[C@H]3C(=O)N[C@]4(C(=O)NS(=O)(=O)C5(C)CC5)C[C@H]4/C=C\CC[C@@H](C)C[C@@H](C)[C@H](NC(=O)OC(C)(C)C(C)(F)F)C(=O)N3C2)c2ccc(OC)cc12` [Compound 1149, 3,3-difluoro-2-methylbutan-2-yl((2R,6S,7R,9R,13aS,14aR,16aS,Z)-2-((6-methoxy-4-(2-methoxyethoxyl)isoquinolin-1-yl)oxy)-7,9-dimethyl-14a-(((1-methylcyclopropyl)sulfonyl)carbamoyl)-5,16-dioxo-1,2,3,5,6,7,8,9,10,11,13a,14,14a,15,16,16a-hexadecahydrocyclopropa[e]pyrrolo[1,2-a][1,4]diazacyclopentadecin-6-yl)carbamate], for which the EC50 in assay [1] and in assay [2] was under 5.46 nM throughout.

Take `COCCOc1cnc(O[C@@H]2C[C@H]3C(=O)N[C@]4(C(=O)NS(=O)(=O)C5CC5)C[C@H]4/C=C\CC[C@H](C)C[C@@H](C)[C@H](NC(=O)OC(C)(C)C(C)(F)F)C(=O)N3C2)c2ccc(OC)cc12` [Compound 1150, 3,3-difluoro-2-methylbutan-2-yl((2R,6S,7R,9S,13aS,14aR,16aS,Z)-14a-((cyclopropylsulfonyl)carbamoyl)-2-((6-methoxy-4-(2-methoxyethoxyl)isoquinolin-1-yl)oxy)-7,9-dimethyl-5,16-dioxo-1,2,3,5,6,7,8,9,10,11,13a,14,14a,15,16,16a-hexadecahydrocyclopropa[e]pyrrolo[1,2-a][1,4]diazacyclopentadecin-6-yl)carbamate]: the half-maximal effective concentration (EC50) in assay [1] and in assay [2] was under 5.46 nM throughout.

Turning to `COCCOc1cnc(O[C@@H]2C[C@H]3C(=O)N[C@]4(C(=O)NS(=O)(=O)C5CC5)C[C@H]4/C=C\CC[C@@H](C)C[C@@H](C)[C@H](NC(=O)OC(C)(C)C(C)(F)F)C(=O)N3C2)c2ccc(OC)cc12` [Compound 1151, 3,3-difluoro-2-methylbutan-2-yl((2R,6S,7R,9R,13aS,14aR,16aS,Z)-14a-((cyclopropylsulfonyl)carbamoyl)-2-((6-methoxy-4-(2-methoxyethoxyl)isoquinolin-1-yl)oxy)-7,9-dimethyl-5,16-dioxo-1,2,3,5,6,7,8,9,10,11,13a,14,14a,15,16,16a-hexadecahydrocyclopropa[e]pyrrolo[1,2-a][1,4]diazacyclopentadecin-6-yl)carbamate], the EC50 in assay [1] and in assay [2] was under 5.46 nM throughout.

With `COCCOc1cnc(O[C@@H]2C[C@H]3C(=O)N[C@]4(C(=O)NS(=O)(=O)C5(C)CC5)C[C@H]4/C=C\CC[C@H](C)C[C@@H](C)[C@H](NC(=O)OC(C)(C)C)C(=O)N3C2)c2ccc(OC)cc12` [Compound 1152, tert-butyl ((2R,6S,7R,9S,13aS,14aR,16aS,Z)-2-((6-methoxy-4-(2-methoxyethoxyl)isoquinolin-1-yl)oxy)-7,9-dimethyl-14a-(((1-methylcyclopropyl)sulfonyl)carbamoyl)-5,16-dioxo-1,2,3,5,6,7,8,9,10,11,13a,14,14a,15,16,16a-hexadecahydrocyclopropa[e]pyrrolo[1,2-a][1,4]diazacyclopentadecin-6-yl)carbamate], the EC50 in assay [1] and in assay [2] was under 5.46 nM throughout.

With `COCCOc1cnc(O[C@@H]2C[C@H]3C(=O)N[C@]4(C(=O)NS(=O)(=O)C5(C)CC5)C[C@H]4/C=C\CC[C@@H](C)C[C@@H](C)[C@H](NC(=O)OC(C)(C)C)C(=O)N3C2)c2ccc(OC)cc12` [Compound 1153, tert-butyl ((2R,6S,7R,9R,13aS,14aR,16aS,Z)-2-((6-methoxy-4-(2-methoxyethoxyl)isoquinolin-1-yl)oxy)-7,9-dimethyl-14a-(((1-methylcyclopropyl)sulfonyl)carbamoyl)-5,16-dioxo-1,2,3,5,6,7,8,9,10,11,13a,14,14a,15,16,16a-hexadecahydrocyclopropa[e]pyrrolo[1,2-a][1,4]diazacyclopentadecin-6-yl)carbamate], the EC50 in assay [1] and in assay [2] was under 5.46 nM each time.

For the compound `COCCOc1cnc(O[C@@H]2C[C@H]3C(=O)N[C@]4(C(=O)NS(=O)(=O)C5CC5)C[C@H]4/C=C\CC[C@H](C)C[C@@H](C)[C@H](NC(=O)OC(C)(C)C)C(=O)N3C2)c2ccc(OC)cc12` [Compound 1154, tert-butyl ((2R,6S,7R,9S,13aS,14aR,16aS,Z)-14a-((cyclopropylsulfonyl)carbamoyl)-2-((6-methoxy-4-(2-methoxyethoxyl)isoquinolin-1-yl)oxy)-7,9-dimethyl-5,16-dioxo-1,2,3,5,6,7,8,9,10,11,13a,14,14a,15,16,16a-hexadecahydrocyclopropa[e]pyrrolo[1,2-a][1,4]diazacyclopentadecin-6-yl)carbamate], the EC50 in assay [1] and in assay [2] was under 5.46 nM each time.

Turning to `COCCOc1cnc(O[C@@H]2C[C@H]3C(=O)N[C@]4(C(=O)NS(=O)(=O)C5CC5)C[C@H]4/C=C\CC[C@@H](C)C[C@@H](C)[C@H](NC(=O)OC(C)(C)C)C(=O)N3C2)c2ccc(OC)cc12` [Compound 1155, tert-butyl ((2R,6S,7R,9R,13aS,14aR,16aS,Z)-14a-((cyclopropylsulfonyl)carbamoyl)-2-((6-methoxy-4-(2-methoxyethoxyl)isoquinolin-1-yl)oxy)-7,9-dimethyl-5,16-dioxo-1,2,3,5,6,7,8,9,10,11,13a,14,14a,15,16,16a-hexadecahydrocyclopropa[e]pyrrolo[1,2-a][1,4]diazacyclopentadecin-6-yl)carbamate], the EC50 in assay [1] and in assay [2] was under 5.46 nM each time.

Regarding `COCCOc1cnc(O[C@@H]2C[C@H]3C(=O)N[C@]4(C(=O)NS(=O)(=O)C5(C)CC5)C[C@H]4/C=C\CC[C@H](C)C[C@@H](C)[C@H](NC(=O)OC4COC4)C(=O)N3C2)c2ccc(OC)cc12` [Compound 1156, oxetan-3-yl((2R,6S,7R,9S,13aS,14aR,16aS,Z)-2-((6-methoxy-4-(2-methoxyethoxyl)isoquinolin-1-yl)oxy)-7,9-dimethyl-14a-(((1-methylcyclopropyl)sulfonyl)carbamoyl)-5,16-dioxo-1,2,3,5,6,7,8,9,10,11,13a,14,14a,15,16,16a-hexadecahydrocyclopropa[e]pyrrolo[1,2-a][1,4]diazacyclopentadecin-6-yl)carbamate], the EC50 in assay [1] and in assay [2] was 4.82 to 103 nM throughout.

Turning to `COCCOc1cnc(O[C@@H]2C[C@H]3C(=O)N[C@]4(C(=O)NS(=O)(=O)C5(C)CC5)C[C@H]4/C=C\CC[C@@H](C)C[C@@H](C)[C@H](NC(=O)OC4COC4)C(=O)N3C2)c2ccc(OC)cc12` [Compound 1157, oxetan-3-yl ((2R,6S,7R,9R,13aS,14aR,16aS,Z)-2-((6-methoxy-4-(2-methoxyethoxyl)isoquinolin-1-yl)oxy)-7,9-dimethyl-14a-(((1-methylcyclopropyl)sulfonyl)carbamoyl)-5,16-dioxo-1,2,3,5,6,7,8,9,10,11,13a,14,14a,15,16,16a-hexadecahydrocyclopropa[e]pyrrolo[1,2-a][1,4]diazacyclopentadecin-6-yl)carbamate], the EC50 in assay [1] and in assay [2] was 4.82 to 103 nM throughout.

Regarding `COCCOc1cnc(O[C@@H]2C[C@H]3C(=O)N[C@]4(C(=O)NS(=O)(=O)C5CC5)C[C@H]4/C=C\CC[C@H](C)C[C@@H](C)[C@H](NC(=O)OC4COC4)C(=O)N3C2)c2ccc(OC)cc12` [Compound 1158, oxetan-3-yl ((2R,6S,7R,9S,13aS,14aR,16aS,Z)-14a-((cyclopropylsulfonyl)carbamoyl)-2-((6-methoxy-4-(2-methoxyethoxyl)isoquinolin-1-yl)oxy)-7,9-dimethyl-5,16-dioxo-1,2,3,5,6,7,8,9,10,11,13a,14,14a,15,16,16a-hexadecahydrocyclopropa[e]pyrrolo[1,2-a][1,4]diazacyclopentadecin-6-yl)carbamate], the EC50 in assay [1] and in assay [2] was 4.82 to 103 nM in each case.

For `COCCOc1cnc(O[C@@H]2C[C@H]3C(=O)N[C@]4(C(=O)NS(=O)(=O)C5CC5)C[C@H]4/C=C\CC[C@@H](C)C[C@@H](C)[C@H](NC(=O)OC4COC4)C(=O)N3C2)c2ccc(OC)cc12` [Compound 1159, oxetan-3-yl ((2R,6S,7R,9R,13aS,14aR,16aS,Z)-14a-((cyclopropylsulfonyl)carbamoyl)-2-((6-methoxy-4-(2-methoxyethoxyl)isoquinolin-1-yl)oxy)-7,9-dimethyl-5,16-dioxo-1,2,3,5,6,7,8,9,10,11,13a,14,14a,15,16,16a-hexadecahydrocyclopropa[e]pyrrolo[1,2-a][1,4]diazacyclopentadecin-6-yl)carbamate], the EC50 in assay [1] and in assay [2] was 4.82 to 103 nM in each case.

`COc1cnc(O[C@@H]2C[C@H]3C(=O)N[C@]4(C(=O)NS(=O)(=O)C5CC5)C[C@H]4/C=C\CC[C@H](C)C[C@@H](C)[C@H](NC(=O)OC(C)(C)C)C(=O)N3C2)c2cc(Cl)ccc12` [Compound 1160, tert-butyl ((2R,6S,7R,9S,13aS,14aR,16aS,Z)-2-((7-chloro-4-methoxyisoquinolin-1-yl)oxy)-14a-((cyclopropylsulfonyl)carbamoyl)-7,9-dimethyl-5,16-dioxo-1,2,3,5,6,7,8,9,10,11,13a,14,14a,15,16,16a-hexadecahydrocyclopropa[e]pyrrolo[1,2-a][1,4]diazacyclopentadecin-6-yl)carbamate]: the EC50 in assay [1] is 4.82 to 103 nM; in assay [2], under 5.46 nM.

In the case of `COc1cnc(O[C@@H]2C[C@H]3C(=O)N[C@]4(C(=O)NS(=O)(=O)C5CC5)C[C@H]4/C=C\CC[C@@H](C)C[C@@H](C)[C@H](NC(=O)OC(C)(C)C)C(=O)N3C2)c2cc(Cl)ccc12` [Compound 1161, tert-butyl ((2R,6S,7R,9R,13aS,14aR,16aS,Z)-2-((7-chloro-4-methoxyisoquinolin-1-yl)oxy)-14a-((cyclopropylsulfonyl)carbamoyl)-7,9-dimethyl-5,16-dioxo-1,2,3,5,6,7,8,9,10,11,13a,14,14a,15,16,16a-hexadecahydrocyclopropa[e]pyrrolo[1,2-a][1,4]diazacyclopentadecin-6-yl)carbamate], the EC50 in assay [1] and in assay [2] was under 5.46 nM throughout.
